According to patent US20240124455A1, “TRICYCLIC COMPOUNDS AS ANTICANCER AGENTS” (JINGRUI BIOPHARMA CO., LTD., priority 2021, published 2024):

Assays:
BRD4 (BD1) = target: T1, BRD4 (BD1) (Homo sapiens, UniProt O60885); assay: BRD4 (BD1) binding assay (HTRF); details: BRD4 (D1) with GST tag and biotin-labeled acetylated peptide
T1 construct: purchased Reaction Biology Company RD-11-157
Experimental: The BRD4 (BD1) biochemical binding assay was carried out by Sundia MediTech Co., Ltd. • Materials and suppliers: • BRD4(D1): Reaction Biology Company; catalog #: RD-11-157; batch #1319 • Positive control compound: AZD5153; Selleck, catalog #, S8344, batch #, 1 • Peptide: GL China; catalog #329934; batch #, P171229-JQ329934 • DMSO: Sigma; catalog #, D8418-1L; batch #, SHBG3288V • OptiPlate-384: PerkinElmer; catalog #6007270, batch #, 8240-17211 • Instruments: • Centrifuge (manufacturer: Eppendorf, model: 5430) • Microplate reader (manufacturer: Perkin Elmer, model: EnVision) • Sonic pipetting system (manufacturer: Labcyte, model: Echo® 550) • In the assay, the HTRF method uses an anti-GST antibody with a cryptate chelate-labeled europium element as the donor, and the d2 or XL665-labeled streptavidin (having high affinity with biotin) as the acceptor to study the interaction between BRD4 (D1) with GST tag and biotin-labeled acetylated peptide. When the donor and acceptor are close to each other due to the binding of BRD4 (D1) to the biotin-labeled peptide, the excitation of the donor triggers fluorescence resonance energy transfer (FRET) to the acceptor, which then emits fluorescence at a specific wavelength (665 nm). • General assay procedure: 20 nL of compound solution was transferred to the 384-well plate by Labcyte Echo® 550 liquid handler, and 5 μL of BRD4 (BD1) solution from Reaction Biology Company, RD-11-157, or the assay buffer was added to each well. After centrifuge for 1 minute and incubating 15 minutes at rt, the 5 μL peptide (GL China, Catalog #329934, Batch, P171229-JQ329934) was added to each well. After centrifuge for 1 minute at 1000 rpm, 10 μL detect solution was added to each well. After incubating for 60 minutes, centrifuging 1 minute, the signals were measured by Microplate reader. Data analysis: The inhibition percentage in the presence of the compound was calculated based on the following formula:
% Inhibition=(Signal_max−Signal sample/Signal_max−Signal_min)×100
Fitting the data in GrphaPad Prism V5.0 software with log(inhibitor) vs. response-Variable slope, the IC50 was obtained.

MV-4-11 = assay: Cell proliferation assay (Cell Titer-Glo); assay type: cell-based; details: MV-4-11 cells, compound treatment 72 h, CellTiter-Glo
Experimental: In order to evaluate the activity of the compound on cells, the Cell Titer-Glo assay was used for detection. The cells were incubated in a 37° C. incubator and treated with compounds for 72 hours. At the end of the reaction, the number of living cells in the culture is measured by quantitative determination of ATP. ATP is an indicator of the metabolism of living cells. With Cell Titer-Glo, the luminescence signal produced by cell lysis is proportional to the amount of ATP present, and the amount of ATP is directly proportional to the number of cells in the culture. These signal ratios reflect the cell activity of the compound at that concentration in the well under this condition. • (1) Seeding cells • Trypsinize cells and count cell density with the automated cell counter. • Dilute cell suspension to required density according to seeding density. • Seed 100 ul cells into 96-well plate in growth medium according to the plate map. Medium only is used as background control (Min). • Incubate at 37° C., 5% CO2 overnight. • (2) Compound treatment • Make 200× compound solution in DMSO. • Dilute compounds with growth medium to 3× final concentration by addition of 3 ul 200× compounds to 197 ul growth medium. • Add 50 ul diluted compounds to cells and incubate at 37° C., 5% CO2 for 72 h. • (3) Measurement • Equilibrate the assay plate to room temperature prior to measurement. • Add 40 ul of CellTiter-Glo® Reagent into each well. • Mix contents for 2 minutes on an orbital shaker to induce cell lysis. • Incubate at room temperature for 60 minutes to stabilize luminescent signal. • Record luminescence on Envision. • (4) Data analysis • (1) Using GraphPad Prism 5. • (2) % Inh=(Max signal−Compound signal)/(Max signal−Min signal)×100. • (3) Max signal was obtained from the action of DMSO. • (4) Min signal was obtained from the action of medium only.

SMILES | IC50 (BRD4 (BD1)) [nM] | IC50 (MV-4-11) [nM] | IC50 (MV-4-11; Homo sapiens, MV4-11, 72 h) [nM]
[2H]C([2H])([2H])c1nnn(C)c1-c1cnc2c3nn(C)c(C(C)(C)O)c3n(C(c3ncccc3F)C3CCOCC3)c2c1 (single isomer, unassigned) [Example 20, 2-(4-((3-Fluoropyridin-2-yl)(tetrahydro-2H-pyran-4-yl)methyl)-2-methyl-6-(1-methyl-4-(methyl-d3)-1H-1,2,3-triazol-5-yl)-2,4-dihydropyrazolo[3′,4′:4,5]pyrrolo[3,2-b]pyridin-3-yl)propan-2-ol] | 0.17 | 0.81 | 
[2H]C([2H])([2H])c1nnn(C)c1-c1cnc2c3nn(C)c(C(C)(C)O)c3n(C(c3ncccc3F)C3CCOCC3)c2c1 (single isomer, unassigned) [Example 19, 2-(4-((3-Fluoropyridin-2-yl)(tetrahydro-2H-pyran-4-yl)methyl)-2-methyl-6-(1-methyl-4-(methyl-d3)-1H-1,2,3-triazol-5-yl)-2,4-dihydropyrazolo[3′,4′:4,5]pyrrolo[3,2-b]pyridin-3-yl)propan-2-ol] | 5 | 85.3 | 
[2H]C([2H])([2H])c1nnn(C)c1-c1cnc2c3nn(C([2H])([2H])[2H])c(C(C)(C)O)c3n(C(c3ncccc3F)C3CCOCC3)c2c1 (single isomer, unassigned) [Example 24, 2-(4-((3-Fluoropyridin-2-yl)(tetrahydro-2H-pyran-4-yl)methyl)-2-(methyl-d3)-6-(1-methyl-4-(methyl-d3)-1H-1,2,3-triazol-5-yl)-2,4-dihydropyrazolo[3′,4′:4,5]pyrrolo[3,2-b]pyridin-3-yl)propan-2-ol] | 0.17 | 0.47 | 
[2H]C([2H])([2H])n1nc2c3ncc(-c4c(C)nnn4C)cc3n(C(c3ncccc3F)C3CCOCC3)c2c1C(C)(C)O (single isomer, unassigned) [Example 15, 2-(6-(1,4-Dimethyl-1H-1,2,3-triazol-5-yl)-4-((3-fluoropyridin-2-yl)(tetrahydro-2H-pyran-4-yl)methyl)-2-(methyl-d3)-2,4-dihydropyrazolo[3′,4′:4,5]pyrrolo[3,2-b]pyridin-3-yl)propan-2-ol] | 4.8 | 72.2 | 
[2H]C([2H])([2H])n1nc2c3ncc(-c4c(C)nnn4C)cc3n(C(c3ncccc3F)C3CCOCC3)c2c1C(C)(C)O (racemic) [Example 14, 2-(6-(1,4-Dimethyl-1H-1,2,3-triazol-5-yl)-4-((3-fluoropyridin-2-yl)(tetrahydro-2H-pyran-4-yl)methyl)-2-(methyl-d3)-2,4-dihydropyrazolo[3′,4′:4,5]pyrrolo[3,2-b]pyridin-3-yl)propan-2-ol] | 0.53 | 1.77 | 
[2H]C([2H])([2H])c1nnn(C)c1-c1cnc2c3nn(C([2H])([2H])[2H])c(C(C)(C)O)c3n(C(c3ncccc3F)C3CCOCC3)c2c1 (racemic) [Example 22, 2-(4-((3-Fluoropyridin-2-yl)(tetrahydro-2H-pyran-4-yl)methyl)-2-(methyl-d3)-6-(1-methyl-4-(methyl-d3)-1H-1,2,3-triazol-5-yl)-2,4-dihydropyrazolo[3′,4′:4,5]pyrrolo[3,2-b]pyridin-3-yl)propan-2-ol] | 0.34 | 1.4 | 
[2H]C([2H])([2H])n1nc2c3ncc(-c4c(C)nnn4C)cc3n(C(c3ncccc3F)C3CCOCC3)c2c1C(C)(C)O (single isomer, unassigned) [Example 16, 2-(6-(1,4-Dimethyl-1H-1,2,3-triazol-5-yl)-4-((3-fluoropyridin-2-yl)(tetrahydro-2H-pyran-4-yl)methyl)-2-(methyl-d3)-2,4-dihydropyrazolo[3′,4′:4,5]pyrrolo[3,2-b]pyridin-3-yl)propan-2-ol] | 0.18 | 0.49 | 
[2H]C([2H])([2H])c1nnn(C)c1-c1cnc2c3nn(C)c(C(=O)OC)c3n(C(c3ncccc3F)C3CCOCC3)c2c1 (centres unmarked) [Example 17, Methyl 4-((3-fluoropyridin-2-yl)(tetrahydro-2H-pyran-4-yl)methyl)-2-methyl-6-(1-methyl-4-(methyl-d3)-1H-1,2,3-triazol-5-yl)-2,4-dihydropyrazolo[3′,4′:4,5]pyrrolo[3,2-b]pyridine-3-carboxylate] | 0.59 |  | 3.3
[2H]C([2H])([2H])c1nnn(C)c1-c1cnc2c3nn(C)c(C(C)(C)O)c3n(C(c3ncccc3F)C3CCOCC3)c2c1 (racemic) [Example 18, 2-(4-((3-Fluoropyridin-2-yl)(tetrahydro-2H-pyran-4-yl)methyl)-2-methyl-6-(1-methyl-4-(methyl-d3)-1H-1,2,3-triazol-5-yl)-2,4-dihydropyrazolo[3′,4′:4,5]pyrrolo[3,2-b]pyridin-3-yl)propan-2-ol] | 0.52 | 1.94 | 

The remaining lines, values ahead:

IC50 (BRD4 (BD1)) [nM] | IC50 (MV-4-11) [nM] | IC50 (MV-4-11; Homo sapiens, MV4-11, 72 h) [nM] | SMILES
0.19 | 0.52 |  | Cc1nnn(C)c1-c1cnc2c3nn(C)c(C(C)(C)O)c3n(C(c3ncccc3F)C3CCOCC3)c2c1 (single isomer, unassigned) [Example 12, 2-(6-(1,4-Dimethyl-1H-1,2,3-triazol-5-yl)-4-((3-fluoropyridin-2-yl)(tetrahydro-2H-pyran-4-yl)methyl)-2-methyl-2,4-dihydropyrazolo[3′,4′:4,5]pyrrolo[3,2-b]pyridin-3-yl)propan-2-ol]
6.8 | 63.3 |  | Cc1nnn(C)c1-c1cnc2c3nn(C)c(C(C)(C)O)c3n(C(c3ncccc3F)C3CCOCC3)c2c1 (single isomer, unassigned) [Example 11, 2-(6-(1,4-Dimethyl-1H-1,2,3-triazol-5-yl)-4-((3-fluoropyridin-2-yl)(tetrahydro-2H-pyran-4-yl)methyl)-2-methyl-2,4-dihydropyrazolo[3′,4′:4,5]pyrrolo[3,2-b]pyridin-3-yl)propan-2-ol]
0.61 |  | 3.42 | Cc1nnn(C)c1-c1cnc2c3nn(C)c(C(C)(C)O)c3n(C(c3ncccc3F)C3CCOCC3)c2c1 (racemic) [Example 10, 2-(6-(1,4-Dimethyl-1H-1,2,3-triazol-5-yl)-4-((3-fluoropyridin-2-yl)(tetrahydro-2H-pyran-4-yl)methyl)-2-methyl-2,4-dihydropyrazolo[3′,4′:4,5]pyrrolo[3,2-b]pyridin-3-yl)propan-2-ol]
1.8 | 36.9 |  | Cc1nnn(C)c1-c1cnc2c3nn(C)c(C(C)(C)O)c3n(C(c3ccccc3)C3CCOCC3)c2c1 (single isomer, unassigned) [Example 3, 2-(6-(1,4-Dimethyl-1H-1,2,3-triazol-5-yl)-2-methyl-4-(phenyl(tetrahydro-2H-pyran-4-yl)methyl)-2,4-dihydropyrazolo[3′,4′:4,5]pyrrolo[3,2-b]pyridin-3-yl)propan-2-ol]
0.61 |  | 1.98 | Cc1nnn(C)c1-c1cnc2c3nn(C)c(C(C)(C)O)c3n(C(c3ccccn3)C3CCOCC3)c2c1 (racemic) [Example 6]
8.4 |  | 139 | Cc1nnn(C)c1-c1cnc2c3nn(C)c(C(C)(C)O)c3n([C@@H](c3ccccn3)C3CCOCC3)c2c1 [Example 7]
0.18 |  | 0.75 | Cc1nnn(C)c1-c1cnc2c3nn(C)c(C(C)(C)O)c3n([C@H](c3ccccn3)C3CCOCC3)c2c1 [Example 8]
